Experimental data taken from US10106554B2, “7-(morpholinyl)-2-(N-piperazinyl) methyl thieno [2, 3-C] pyridine derivatives as anticancer drugs” (NATCO PHARMA LIMITED, priority 2014, dated 2018).

Experiments:
[1] = MTD (Maximum Tolerated Dose) study in mice, OECD procedure; conditions: both sexes, mouse, in vivo, oral; p.o, single dose, 14 days observation, Swiss Albino mice
Experimental: The method was carried out as per OECD procedure. The study was carried out using 5 (2 Male+3 Female) Swiss Albino Mice weighing between 18-30 gms. All the animals were fasted for 3 hrs prior to the oral administration of the drug. After preparing the sample administer immediately to their body all the animals according weight. […] At the end of 14 days all the surviving animals were autopsied and stomach were cut opened and observed for absorption of the drug through the GIT. The result is given in FIG. 1. • COMPOUND 2: MTD>2000 mg.kg, p.o (Single dose 14 days observation) • COMPOUND 1: MTD=500 mg/kg, p.o (Single dose 14 days observation) b. Antagonism of MIAPaca—2 Induced Tumor in Nude Mice: […]

[2] = tested on: NCI-H292 induced tumor (Erlotinib resistant lung cancer); test: Antagonism of NCI-H292 induced tumor in nude mice (histopathology); type: in vivo; conditions: 50 mg/kg for 15 days; histopathology (4/5); positive control tumor present in all 5 animals
Experimental: The study was carried out with 15 Nude Mice (8 Male+7 Female).Weighing of Nude Mice were taken initially before inoculation of cell line and made into groups. Grouping as follows:
Group I: Positive control (4 Male+1 Female)
The cell line was inoculated to Nude Mice subcutaneously to the right hind limb flank at a strength of 6.25×10^5 cells/0.2 ml. […] The tumor volume was measured using the formula […] (l=length of tumor & w=width of tumor).When the mean tumor volume was recorded above 400 mm^3, the treatment with the above drugs will be started. […] Weight of Nude Mice Was taken daily before dosing and tumor measurement was done on alternative days using digital Vernier caliper. […] Mice dead during experimental schedule, the tumor with skin and liver were collected and stored in 10% buffered formalin .All the organs after collection were sent for histopathology.

[3] = tested on: MIAPaca-2 induced tumor; test: Antagonism of MIAPaca-2 induced tumor in nude mice; type: in vivo; conditions: for mean tumor area: p.o daily for 30 days, control 33.13 mm^2
Experimental: This study was carried out with 20 Male Nude Mice. Weighing of Nude Mice were taken initially before inoculation of cell line and made into four groups.
Group-I: Positive control (5 Male)
Group-II: COMPOUND 2 (5 Male) (200 mg/kg, p.o)
Group-III: COMPOUND 1 (5 Male) (50 mg/kg, p.o)
Group-IV: Standard (5 Male) (Erlotinib hydrochloride—50 mg/kg, p.o & Gemcitabine hydrochloride—120 mg/kg, i.p.)
The cell line was inoculated to Nude Mice subcutaneously to the right hind limb flank at a strength of 1×10^7 cells/0.2 ml. […] The tumor volume was measured using the formula ½1×w^2 (l=length of tumor & w=width of tumor). When the mean tumor volume was recorded above 400 mm^3, the treatment with the above drugs were started. The above drugs were administered orally daily for 30 days, except Gemcitabine hydrochloride was administered on 1st and 3rd day of each week. Weight of Nude Mice was taken daily before dosing and tumor measurement was done on alternative days using digital Vernier caliper. Surviving animals were sacrificed after the dosing is complete for 30 days and organs (tumor with skin and pancreas) were collected.
Mice dead during experimental schedule, the tumor with skin and pancreas were collected and tumor with skin was stored in 10% buffered formalin and pancreas were stored in Bouin's solution. All the organs after collection were sent for histopathology.

[4] = 200 mg/kg, p.o, 5 mice, control 40%

Row | SMILES | MTD at 14 days [1] | clearance of tumor, animals [2] | mean tumor area ([3]; 50 mg/kg) | remaining tumors showing no much activity (no invasion) ([3]; 50 mg/kg, p.o, 5 mice) | tumors showing invasion into underlying muscle ([3]; 50 mg/kg, p.o, 5 mice) | mean tumor area ([3]; 200 mg/kg) | tumors localized, no tumor invasion seen [3, 4] | tumors showing vascular invasion [3, 4]
1 | Cc1c(CN2CCN(S(C)(=O)=O)CC2)sc2c(N3CCOCC3)nc(-c3cnc(N)nc3)cc12 [COMPOUND 1, 5-[3-methyl-2-[(4-methylsulfonylpiperazin-1-yl)methyl]-7-morpholino-thieno[2,3-c]pyridin-5-yl]pyrimidin-2-amine] | 500 mg/kg | 80% | 8.60 mm^2 | 80% | 20% | – | – | –
2 | CS(=O)(=O)N1CCN(Cc2cc3cc(-c4cnc(N)nc4)nc(N4CCOCC4)c3s2)CC1 [COMPOUND 2, 5-[2-[(4-methylsulfonylpiperazin-1-yl)methyl]-7-morpholino-thieno[2,3-c]pyridin-5-yl]pyrimidin-2-amine] | > 2000 mg/kg | – | – | – | – | 10.90 mm^2 | 60% | 40%
